Data from the supplement of paper PMC10307832.

Columns and labels:
Assay in all cases: relative viability (nuclei count vs DMSO), 5 days (fraction); higher = more cells survive
[1] = compound: CC1CC(=O)N(C2=CN=C(N=C2N1C3CCCC3)NC4=C(C=C(C=C4)C(=O)NC5CCN(CC5)C)OC)C [NPK76-II-72-1] + CS(=O)(=O)CCNCc1ccc(-c2ccc3ncnc(Nc4ccc(OCc5cccc(F)c5)c(Cl)c4)c3c2)o1 [Lapatinib] (partner 2 µM)
Procedure, shortened: (§1)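 For relative viability, nuclei counts in treated wells were divided by those in vehicle wells. Lung cancer cell lines had been pin-tool dosed in 1536-well plates the day after seeding and cultured for 5 days, then fixed and stained in one step (final 0.05% Triton X-100, 1% formaldehyde, 1 ug/ml Hoechst) and imaged at 4×. Doses were one drug alone or a fixed anchor-drug dose plus five library-drug doses (not always all listed) in √10 steps, and values are duplicate-plate medians.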

[2] = compound: CC1CC(=O)N(C2=CN=C(N=C2N1C3CCCC3)NC4=C(C=C(C=C4)C(=O)NC5CCN(CC5)C)OC)C [NPK76-II-72-1] + COc1cc2c(Oc3ccc(NC(=O)C4(C(=O)Nc5ccc(F)cc5)CC4)cc3F)ccnc2cc1OCCCN1CCOCC1 [Foretinib] (partner 0.25 µM)
Procedure, shortened: as §1

BI-2536 + AZD7762 = compound: CC[C@@H]1C(=O)N(C)c2cnc(Nc3ccc(C(=O)NC4CCN(C)CC4)cc3OC)nc2N1C1CCCC1 [BI-2536] + NC(=O)Nc1cc(-c2cccc(F)c2)sc1C(=O)N[C@H]1CCCNC1 [AZD7762] (partner 0.2 µM)
Procedure, shortened: as §1

BI-2536 + OSI-027 = compound: CC[C@@H]1C(=O)N(C)c2cnc(Nc3ccc(C(=O)NC4CCN(C)CC4)cc3OC)nc2N1C1CCCC1 [BI-2536] + COc1cccc2cc(-c3nc([C@H]4CC[C@H](C(=O)O)CC4)n4ncnc(N)c34)[nH]c12 [OSI-027] (partner 0.5 µM)
Procedure, shortened: as §1

Row | Cell Line | relative viability ([1]; first compound 0.01 µM) | relative viability ([1]; first compound 0.03162 µM) | relative viability ([1]; first compound 0.1 µM) | relative viability ([1]; first compound 0.3162 µM) | relative viability ([1]; first compound 1 µM) | relative viability ([2]; first compound 0.01 µM) | relative viability ([2]; first compound 0.03162 µM) | relative viability ([2]; first compound 0.1 µM) | relative viability ([2]; first compound 0.3162 µM) | relative viability ([2]; first compound 1 µM) | relative viability (BI-2536 + AZD7762; first compound 0.01 µM) | relative viability (BI-2536 + AZD7762; first compound 0.03162 µM) | relative viability (BI-2536 + AZD7762; first compound 0.1 µM) | relative viability (BI-2536 + AZD7762; first compound 0.3162 µM) | relative viability (BI-2536 + AZD7762; first compound 1 µM) | relative viability (BI-2536 + OSI-027; first compound 0.01 µM) | relative viability (BI-2536 + OSI-027; first compound 0.03162 µM) | relative viability (BI-2536 + OSI-027; first compound 0.1 µM) | relative viability (BI-2536 + OSI-027; first compound 0.3162 µM) | relative viability (BI-2536 + OSI-027; first compound 1 µM)
1 | 201T | 0.975 | 1.07 | 1.04 | 1.11 | 1 | 1.06 | 1.12 | 1.15 | 1.06 | 1.27 | 0.609 | 0.647 | 0.588 | 0.33 | 0.255 | 0.331 | 0.715 | 0.728 | 0.0923 | 0.16
2 | A549 | 0.881 | 1.11 | 0.963 | 0.869 | 1.07 | 0.937 | 0.979 | 0.93 | 0.856 | 1.05 |  |  |  |  |  |  |  |  |  | 
3 | A-427 | 1.07 | 1.04 | 1.02 | 1.03 | 0.953 | 0.923 | 1.04 | 1.08 | 1.14 | 1.07 | 0.728 | 0.867 | 0.436 | 0.195 | 0.173 | 0.464 | 0.471 | 0.251 | 0.12 | 0.119
4 | ABC-1 | 1.02 | 1.19 | 1.18 | 1.08 | 1.31 | 1.06 | 1.12 | 0.799 | 1.08 | 1.17 | 0.576 | 0.871 |  | 0.922 | 0.301 | 0.419 | 0.362 | 0.237 | 0.236 | 0.19
5 | BEN | 0.61 | 0.548 | 0.657 | 0.492 | 0.697 | 0.676 | 0.526 | 0.748 | 0.657 | 0.635 | 0.67 | 0.711 | 0.521 | 0.419 | 0.396 | 0.312 | 0.261 | 0.272 | 0.233 | 0.169
6 | CAL-12T | 0.571 | 0.749 | 0.632 |  | 0.777 | 1.11 | 1.18 | 1.03 | 1.1 | 1.3 | 0.608 | 0.712 | 0.619 | 0.177 | 0.187 | 0.646 | 0.531 | 0.188 | 0.144 | 0.191
7 | COR-L23 | 0.879 | 1.02 | 1.02 | 1.03 | 0.929 | 0.915 | 0.977 | 1.01 | 0.9 | 0.979 |  |  |  |  |  | 0.864 | 0.484 | 0.216 | 0.107 | 0.139
8 | COR-L 105 | 0.404 | 0.375 | 0.358 | 0.367 | 0.345 | 0.865 | 1.25 | 1.06 | 1.03 | 0.89 |  |  |  |  |  | 0.69 | 0.596 | 0.35 | 0.254 | 0.214
9 | Calu-6 | 1.01 | 1.12 | 1.08 | 1.03 | 1.17 | 0.833 | 0.991 | 0.772 | 0.823 | 0.913 |  |  |  |  |  |  |  |  |  | 
10 | ChaGo-K-1 |  |  |  |  |  | 0.923 | 0.91 | 0.994 | 0.92 | 0.882 | 0.828 | 0.854 | 0.644 | 0.241 | 0.202 | 0.661 | 0.577 | 0.253 | 0.136 | 0.155
11 | EBC-1 | 0.193 | 0.182 | 0.218 | 0.229 | 0.218 | 0.103 | 0.121 | 0.0919 | 0.114 | 0.108 |  |  |  |  |  |  |  |  |  | 
12 | EKVX | 0.206 | 0.193 | 0.22 | 0.222 | 0.236 | 0.428 | 0.878 | 0.773 | 0.3 | 1.15 | 0.613 | 0.877 | 0.63 | 0.614 | 0.276 | 0.717 | 0.731 | 0.66 | 0.258 | 0.149
13 | EMC-BAC-2 | 0.9 | 1.05 | 0.871 | 0.884 | 0.912 | 1.05 | 1.07 | 1.07 | 0.945 | 1.2 | 1.05 | 1.21 | 0.777 | 0.269 | 0.277 | 0.381 | 0.358 | 0.249 | 0.193 | 0.184
14 | HCC-44 | 0.983 | 0.991 | 0.935 | 0.937 | 1 |  |  |  |  |  | 1.08 | 1.06 | 0.978 | 0.655 | 0.361 | 0.483 | 0.527 | 0.13 | 0.135 | 0.12
15 | IA-LM | 0.786 | 0.877 | 0.804 | 0.785 | 1.03 | 1.06 | 1.18 | 1.18 | 1.12 | 1.26 |  |  |  |  |  |  |  |  |  | 
16 | LCLC-103H |  |  |  |  |  | 0.666 | 0.726 | 0.717 | 0.745 | 0.739 | 0.804 | 0.826 | 0.605 | 0.244 | 0.169 | 0.462 | 0.466 | 0.485 | 0.215 | 0.155
